Source: publication PMC6027665, “Synthesis and Cytotoxicity Evaluation of Novel Asymmetrical Mono-Carbonyl Analogs of Curcumin (AMACs) against Vero, HeLa, and MCF7 Cell Lines” (Scientia Pharmaceutica, 2018)
≈ marks a conversion by molar mass, not a printed value. Like-named read-outs stand apart in the source and are kept apart here.

Key:
[1] = system: Vero cell lines (ATCC CCL-81); assay: MTT proliferation assay, Vero cell lines (normal cells); assay type: cell-based, African green monkey; conditions: 48 h incubation, mean ± SD (n = 3)
Description: (§1) The cytotoxic activity of the synthesized compounds was evaluated against human cervix carcinoma (HeLa, ATCC CCL-2) cell lines, human estrogen-dependent breast carcinoma (MCF7, ATCC HTB-22) cell lines, and kidney of an African green monkey (Vero, ATCC CCL-81) as a normal cell lines using the methyl thiazolyl tetrazolium (MTT) method conducted according to the MTT assay protocol published by the American Type Culture Collection (ATCC). Cisplatin was used as a reference drug. Curcumin was also evaluated as a comparative compound on the tests against Vero and MCF7 cell lines, and doxorubicin was evaluated as an additional comparator on the test against MCF7 cell lines. The assay detects the reduction of yellow tetrazolium (MTT) by metabolically active cells to be purple formazan measured using spectrophotometry.
(§2) The cells lines were seeded into 96-well plates at a density of 5000 cells per well, replenished with growth media consisting of Dulbecco’s Modified Eagle’s medium (D-MEM) for Vero or Roswell Park Memorial Institute (RPMI) 1640 medium for MCF7 and HeLa, 5% Fetal Bovine Serum (FBS), 100 U/mL penicillin, and 100 μg/mL streptomycin. The cells were incubated at 37 °C in 5% CO2 for 24 h. Then, a series concentrations of the tested compounds (1.5, 3.1, 6.2, 12.5, 25.0, 50.0, 100.0, and 200.0 µg/mL) were added to each well of the plate and incubated for 48 h. After that, 10 μL fresh solution of MTT reagent was added to each well, and the plate was incubated in a CO2 incubator at 37 °C for 4 h. After the purple precipitate was obtained, the cells were dissolved in ethanol and their optical density was recorded at 595 nm. The experiment was performed in triplicate. Percent proliferation inhibition was calculated using the following formula: Viability cells inhibition (%)=100−[(At−Ab)/(Ac−Ab)] ×100%
(§3) At = absorption of test compound, Ab = absorption of blank, Ac = absorption of control.
(§4) The concentration of the synthesized compounds required to inhibit 50% of the growth of the cell lines (IC50 values) was calculated by analyzing the relationship between concentrations and percent (%) inhibitions using GraphPad Prism 7 version 7.00 for Windows, GraphPad Software, La Jolla, CA, USA, www.graphpad.com.

[2] = system: HeLa cell lines (human cervix carcinoma, ATCC CCL-2); assay: MTT proliferation assay, HeLa cell lines; assay type: cell-based; conditions: 48 h incubation, mean ± SD (n = 3)
Description: as §1, §2, §3, §4

[3] = system: MCF7 cell lines (human estrogen-dependent breast carcinoma, ATCC HTB-22); assay: MTT proliferation assay, MCF7 cell lines; assay type: cell-based
Description: as §1, §2, §3, §4

[4] = system: HeLa cell lines (human cervix carcinoma, ATCC CCL-2); parameters: method as in doi:10.1016/j.toxlet.2016.06.1915; conditions: value of an earlier study; cited from earlier work
[5] = Brine shrimp lethality test (BSLT); assay type: in vivo; conditions: Artemia salina (brine shrimp) larvae, in vivo, other: compound diluted in the seawater holding the larvae; brine shrimp larvae, 24 h, triplicate
Description: (§5) The assay was carried out according to the principle and protocol previously described by Meyer, with slight modification. Artemia salina L. eggs were inserted into a box containing seawater; the box was placed under UV lamp, and after 48 h the eggs hatched into larvae and ready for the test. The compounds (1a–1e, 2a–2e) were diluted in 10 mL seawater containing 10 larvae (1% DMSO (v/v)) until concentrations 20, 200, 500, and 1000 ppm were reached. After 24 h, the live and dead shrimp were counted. The mortality rate (%) was obtained by comparing the number of total dead larvae and the total number of larvae. The experiment was conducted in triplicate. The concentrations (dose)-response (% mortality) data were transformed into a straight line using a logit transformation, and the concentration required to kill 50% of the population (LC50 values) was derived from the best fit line obtained by linear regression analysis.

Artemia salina L. larvae = assay: Brine shrimp lethality test (BSLT); assay type: in vivo; conditions: Artemia salina, read-out: BSLT toxicity level
Description: as §5

[6] = Homo sapiens, MCF7, 48 h incubation, mean ± SD (n = 3), read-out: IC50 (µM) MCF7

Compound | IC50 [1] [µM] | IC50 [2] [µM] | IC50 ([3]; 48 h incubation, mean ± SD (n = 3), read-out: IC50 (µM) MCF7) [µM] | IC50 [4] [µM] | LC50 at 24 h [5] [µM] | LC50 (Artemia salina L. larvae) [µg/mL] | IC50 ([1]; Chlorocebus sabaeus, Vero) [µM] | IC50 ([2]; Homo sapiens) [µM] | IC50 [3, 6] [µM] | IC50 ([3]; Homo sapiens, MCF7, same value in µg/mL, read-out: IC50 MCF7) [µg/mL]
N.N.[Cl][Pt][Cl] [Cisplatin, reference compound] | 84.7 ± 2.09 | 67.6 ± 2.04 | 12.8 ± 1.35 | 12.3 | – | – | – | – | – | –
COc1cc(/C=C2\CCC/C(=C\c3ccccc3)C2=O)ccc1O [Compound 1a, (2E,6E)-2-[(4-hydroxy-3-methoxyphenyl)methylidene]-6-(phenylmethylidene)cyclohexan-1-one] | – | – | – | – | 197 | 30 to 100 (≈ 93.6 to 312 µM) | 13.98 ± 0.04 | > 100 | > 100 | –
COc1ccc(/C=C2\CCC/C(=C\c3ccc(O)c(OC)c3)C2=O)cc1 [Compound 1b, (2E,6E)-2-[(4-hydroxy-3-methoxyphenyl)methylidene]-6-[(4-methoxyphenyl)methylidene] cyclohexan-1-one] | – | – | – | – | 323 | 100 to 1000 (≈ 285 to 2850 µM) | 15.4 ± 0.34 | 95.5 ± 7.19 | 7.86 ± 1.05 | 2.75
COc1cc(/C=C2\CCC/C(=C\c3ccc(F)cc3)C2=O)ccc1O [Compound 1c, (2E,6E)-2-[(4-hydroxy-3-methoxyphenyl)methylidene]-6-[(4-fluorophenyl)methylidene] cyclohexan-1-one] | – | – | – | – | 177 | 30 to 100 (≈ 88.7 to 296 µM) | 13.4 ± 0.39 | 49.1 ± 1.17 | 10.9 ± 0.79 | –
COc1cc(/C=C2\CCC/C(=C\c3ccc(Cl)cc3)C2=O)ccc1O [Compound 1d, (2E,6E)-2-[(4-hydroxy-3-methoxyphenyl)methylidene]-6-[(4-chlorophenyl)methylidene] cyclohexan-1-one] | – | – | – | – | 204 | 30 to 100 (≈ 84.5 to 282 µM) | 14.1 ± 0.18 | 55.6 ± 1.49 | 35.9 ± 4.57 | –
COc1cc(/C=C2\CCC/C(=C\c3ccc(C)cc3)C2=O)ccc1O [Compound 1e, (2E,6E)-2-[(4-hydroxy-3-methoxyphenyl)methylidene]-6-[(4-methylphenyl)methylidene] cyclohexan-1-one] | – | – | – | – | 78.7 | < 30 | 16.1 ± 0.18 | 61.2 ± 2.86 | 10.4 ± 0.36 | –
CCN(CC)Cc1cc(/C=C2\CCC/C(=C\c3ccccc3)C2=O)cc(OC)c1O [Compound 2a, (2E,6E)-2-({3-[(diethylamino)methyl]-4-hydroxy-5-methoxyphenyl}methylidene)-6-(phenylmethylidene)cyclohexan-1-one] | – | – | – | – | 921 | 100 to 1000 (≈ 247 to 2470 µM) | 4.14 ± 0.21 | 46.6 ± 1.54 | – | –
CCN(CC)Cc1cc(/C=C2\CCC/C(=C\c3ccc(OC)cc3)C2=O)cc(OC)c1O [Compound 2b, (2E,6E)-2-({3-[(diethylamino)methyl]-4-hydroxy-5-methoxyphenyl}methylidene)-6-[(4-methoxyphenyl)methylidene]cyclohexan-1-one] | – | – | – | – | 80.2 | 30 to 100 (≈ 68.9 to 230 µM) | 7.29 ± 0.12 | 69.3 ± 3.17 | – | –
CCN(CC)Cc1cc(/C=C2\CCC/C(=C\c3ccc(F)cc3)C2=O)cc(OC)c1O [Compound 2c, (2E,6E)-2-({3-[(diethylamino)methyl]-4-hydroxy-5-methoxyphenyl}methylidene)-6-[(4-fluorophenyl)methylidene]cyclohexan-1-one] | – | – | – | – | 88.4 | 30 to 100 (≈ 70.8 to 236 µM) | 4.23 ± 0.32 | 41.1 ± 0.16 | – | –
CCN(CC)Cc1cc(/C=C2\CCC/C(=C\c3ccc(Cl)cc3)C2=O)cc(OC)c1O [Compound 2d, (2E,6E)-2-({3-[(diethylamino)methyl]-4-hydroxy-5-methoxyphenyl}methylidene)-6-[(4-chlorophenyl)methylidene]cyclohexan-1-one] | – | – | – | – | 29.8 | < 30 | 3.94 ± 0.07 | 40.6 ± 0.98 | – | –
CCN(CC)Cc1cc(/C=C2\CCC/C(=C\c3ccc(C)cc3)C2=O)cc(OC)c1O [Compound 2e, (2E,6E)-2-({3-[(diethylamino)methyl]-4-hydroxy-5-methoxyphenyl}methylidene)-6-[(4-methylphenyl)methylidene]cyclohexan-1-one] | – | – | – | – | 1700 | 100 to 1000 (≈ 238 to 2380 µM) | 15.02 ± 0.14 | 76.6 ± 4.27 | 14.6 ± 1.96 | –
COc1cc(/C=C/C(=O)CC(=O)/C=C/c2ccc(O)c(OC)c2)ccc1O [Curcumin] | – | – | – | – | – | – | 31.4 ± 0.41 | – | 10.5 ± 1.1 | –
COc1cccc2c1C(=O)c1c(O)c3c(c(O)c1C2=O)C[C@@](O)(C(=O)CO)C[C@@H]3O[C@H]1C[C@H](N)[C@H](O)[C@H](C)O1 [Doxorubicin, reference compound] | – | – | – | – | – | – | – | – | < 2.94 | –
